According to patent US20220296595A1, “CDK INHIBITORS” (QILU REGOR THERAPEUTICS INC., priority 2019, published 2022):

What follows are compounds tested against T1, CDK4/CyclinD1 (Homo sapiens, UniProt P11802) (assay: Assay for inhibition of CDK4/CyclinD1 (Caliper microfluidic kinase assay)). Details: CDK4/CyclinD1.
T1 construct: purchased Thermofisher PR8064A
Format: biochemical
How it was run: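 IC50 was obtained by 4-parameter sigmoidal fitting after 1 nM CDK4/CyclinD1, 200 μM ATP and 1 μM FL-34 substrate reacted for 3 h at room temperature (pH 7.5 HEPES, 10 mM MgCl2). After EDTA quench, substrate and product were separated and detected on a Caliper microfluidic chip.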

T1 sequence (P11802 whole entry): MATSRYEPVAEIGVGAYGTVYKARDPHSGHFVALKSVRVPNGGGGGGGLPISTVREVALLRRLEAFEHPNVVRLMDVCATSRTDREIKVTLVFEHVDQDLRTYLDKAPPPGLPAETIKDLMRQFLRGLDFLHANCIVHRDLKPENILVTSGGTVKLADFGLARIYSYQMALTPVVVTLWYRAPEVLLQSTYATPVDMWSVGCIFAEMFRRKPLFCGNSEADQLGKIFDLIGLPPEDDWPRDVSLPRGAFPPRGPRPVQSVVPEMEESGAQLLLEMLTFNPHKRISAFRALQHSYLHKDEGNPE
T1 sequence (P24385 whole entry partner): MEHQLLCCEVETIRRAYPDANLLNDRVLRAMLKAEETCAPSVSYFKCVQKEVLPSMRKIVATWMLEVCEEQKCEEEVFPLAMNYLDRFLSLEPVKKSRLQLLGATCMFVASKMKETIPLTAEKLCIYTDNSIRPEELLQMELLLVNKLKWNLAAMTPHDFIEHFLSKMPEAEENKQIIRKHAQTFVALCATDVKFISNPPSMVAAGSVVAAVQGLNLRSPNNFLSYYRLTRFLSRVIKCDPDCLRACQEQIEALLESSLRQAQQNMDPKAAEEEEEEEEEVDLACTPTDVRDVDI

Row | Compound | IC50 [nM]
1 | COc1nc(-c2nc(Nc3ccc(N4CCC(N(C)C)CC4)cn3)ncc2F)cc2c1nc(C)n2C(C)C [compound 94] | < 10
2 | COc1nc(-c2ccnc(Nc3ccc(N4CCOCC4=O)cn3)n2)cc2c1nc(C)n2C(C)C [compound 77] | < 10
3 | COc1nc(-c2ccnc(Nc3ccc(N4CCC(C)(N)CC4=O)cn3)n2)cc2c1ncn2C(C)C (centres unmarked) [compound 313] | 10 to 100
4 | COc1nc(-c2ccnc(Nc3ccc(N4CCC(N5CCOCC5)CC4=O)cn3)n2)cc2c1ncn2C(C)C (centres unmarked) [compound 100] | < 10

Same assay, conditions: CDK4/CyclinD1, 200 μM ATP

Row | Compound | IC50 [nM]
5 | CC(C)c1cnn2ccc(-c3ccnc(Nc4ccc(N5CCC(C)(N)CC5=O)cn4)n3)cc12 (centres unmarked) [compound 196] | < 10
6 | CC(C)c1cnn2ccc(-c3ccnc(Nc4ccc(N5CCCC(N)C5=O)cn4)n3)cc12 (centres unmarked) [compound 207] | < 10
7 | CC(C)c1cnn2ccc(-c3nc(Nc4ccc(N5CCOCC5=O)cc4)ncc3F)cc12 [compound 25] | < 10
8 | CC(C)c1cnn2ccc(-c3ccnc(Nc4ccc(N5CCN(C6CNC6)CC5=O)cn4)n3)cc12 [Synthetic Example 40] | < 10

These compounds were tested on phosphorylation of Retinoblastoma Protein (pRb Ser807/811 or Ser780) in T47D cells (assay: Inhibition of phosphorylation of retinoblastoma protein (pRb) in T47D cell (ELISA)). Details: Homo sapiens, T47D, read-out: Phospho T47D Ser807 IC50.
Format: cell-based, human
Description: T47D breast cancer cells from American Type Culture Collection (ATCC, HTB-133) were plated at 40,000 cells/well in 96-well plates, and were incubated in RPMI 1640 medium (Gibco, 31800105) with 10% Fetal Bovine Serum (FBS, Biowest, FB-1058). Cells were then allowed to adhere overnight at 37° C., 5% CO2. The following day, compounds were titrated in a 3-fold dilution scheme, and the highest compound concentration tested was […]. After 24 hours incubation with compounds, cells were lysed in ice-cold lysis buffer containing phosphatase inhibitor cocktail and 1 mM PMSF. Cell lysates (50 μL/well) were then transferred to ELISA plates (pRb Ser807/811 ELISA kit, Cell Signaling, 13152 or pRb Ser780 ELISA kit, Cell Signaling, 13016)). Plates were incubated overnight at 4° C., with constant slow speed shaking. After incubation, plates were washed following manufacturer's recommendations, and then 100 μL reconstituted detection antibody was added to each well and incubated for 1 hour at 37° C. After incubation, plates were washed, and then 100 μL reconstituted HRP-linked secondary antibody was added to each well and incubated for 30 mins at 37° C. After incubation, plates were washed. Then, 100 μL TMB substrate was added to each well and incubated for 10 min at 37° C. or 30 min at 25° C. Finally, 100 μL of STOP solution was added to each well and mixed gently for a few seconds. Plates were read on the Envision plate reader (PerkinElmer, 2104-0010) using the 96-well […] mode. IC50 values were calculated using 4 parameter sigmoidal dose-response model of Xlfit5/GraphPad Prism 5 software.

Row | Compound | IC50 [nM]
9 | CC(C)c1cnn2ccc(-c3ccnc(Nc4ccc(N5CCN(C6CNC6)CC5=O)cn4)n3)cc12 [Synthetic Example 40] | < 100

Same assay, conditions: Homo sapiens, T47D, read-out: Phospho T47D Ser807 IC50, pRb Ser807 phosphorylation, T47D cells

Row | Compound | IC50 [nM]
10 | CC(C)c1cnn2ccc(-c3ccnc(Nc4ccc(N5CCC(C)(N)CC5=O)cn4)n3)cc12 (centres unmarked) [compound 196] | < 100
11 | CC(C)c1cnn2ccc(-c3ccnc(Nc4ccc(N5CCCC(N)C5=O)cn4)n3)cc12 (centres unmarked) [compound 207] | < 100
12 | CC(C)c1cnn2ccc(-c3nc(Nc4ccc(N5CCOCC5=O)cc4)ncc3F)cc12 [compound 25] | < 100
13 | COc1nc(-c2nc(Nc3ccc(N4CCC(N(C)C)CC4)cn3)ncc2F)cc2c1nc(C)n2C(C)C [compound 94] | 100 to 500
14 | COc1nc(-c2ccnc(Nc3ccc(N4CCOCC4=O)cn3)n2)cc2c1nc(C)n2C(C)C [compound 77] | < 100
15 | COc1nc(-c2ccnc(Nc3ccc(N4CCC(C)(N)CC4=O)cn3)n2)cc2c1ncn2C(C)C (centres unmarked) [compound 313] | < 100
16 | COc1nc(-c2ccnc(Nc3ccc(N4CCC(N5CCOCC5)CC4=O)cn3)n2)cc2c1ncn2C(C)C (centres unmarked) [compound 100] | 100 to 500

The compounds below were run on T47D breast cancer cells (assay: Anti-proliferation assay in T47D cell (Cyquant, day 6)). Details: Homo sapiens, T47D, anti-proliferation, T47D cells; read-out: T47D IC50.
Format: cell-based, human
How it was run: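 A ten-point, 3-fold compound series (10 μM down to 0.51 nM) was applied to overnight-settled cells in 10% FBS RPMI 1640, and DNA content was read by CyQuant fluorescence 6 days later. An untreated plate read before dosing served as baseline for subtraction before IC50 fitting.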

Row | Compound | IC50 [nM]
17 | CC(C)c1cnn2ccc(-c3ccnc(Nc4ccc(N5CCC(C)(N)CC5=O)cn4)n3)cc12 (centres unmarked) [compound 196] | < 100
18 | CC(C)c1cnn2ccc(-c3ccnc(Nc4ccc(N5CCCC(N)C5=O)cn4)n3)cc12 (centres unmarked) [compound 207] | < 100
19 | CC(C)c1cnn2ccc(-c3nc(Nc4ccc(N5CCOCC5=O)cc4)ncc3F)cc12 [compound 25] | < 100
20 | COc1nc(-c2nc(Nc3ccc(N4CCC(N(C)C)CC4)cn3)ncc2F)cc2c1nc(C)n2C(C)C [compound 94] | < 100
21 | COc1nc(-c2ccnc(Nc3ccc(N4CCOCC4=O)cn3)n2)cc2c1nc(C)n2C(C)C [compound 77] | 100 to 500

Same assay, conditions: Homo sapiens, T47D, read-out: T47D IC50

Row | Compound | IC50 [nM]
22 | CC(C)c1cnn2ccc(-c3ccnc(Nc4ccc(N5CCN(C6CNC6)CC5=O)cn4)n3)cc12 [Synthetic Example 40] | < 100

What follows are compounds tested against T2, CDK2/CyclinE1 (Homo sapiens, UniProt P24941) (assay: Assay for inhibition of CDK2/CyclinE1 (Caliper microfluidic kinase assay)). Details: CDK2/CyclinE1, 100 μM ATP; read-out: CDK2 IC50.
T2 construct: purchased SignalChem C29-18G
Format: biochemical
How it was run: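 IC50 came from 4-parameter fits of substrate-to-product conversion, separated on a Caliper chip after an EDTA stop. Reactions ran 3 hours at room temperature with 100 μM ATP, 5 μM fluorescent FL-18 peptide and 5 nM enzyme in 100 mM HEPES pH 7.5, 10 mM MgCl2.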

Row | Compound | IC50 [nM]
23 | CC(C)c1cnn2ccc(-c3ccnc(Nc4ccc(N5CCC(C)(N)CC5=O)cn4)n3)cc12 (centres unmarked) [compound 196] | < 10
24 | CC(C)c1cnn2ccc(-c3ccnc(Nc4ccc(N5CCCC(N)C5=O)cn4)n3)cc12 (centres unmarked) [compound 207] | 10 to 100
25 | CC(C)c1cnn2ccc(-c3nc(Nc4ccc(N5CCOCC5=O)cc4)ncc3F)cc12 [compound 25] | < 10
26 | CC(C)c1cnn2ccc(-c3ccnc(Nc4ccc(N5CCN(C6CNC6)CC5=O)cn4)n3)cc12 [Synthetic Example 40] | 10 to 100

Same assay, conditions: CDK2/CyclinE1; read-out: CDK2 IC50

Row | Compound | IC50 [nM]
27 | COc1nc(-c2nc(Nc3ccc(N4CCC(N(C)C)CC4)cn3)ncc2F)cc2c1nc(C)n2C(C)C [compound 94] | > 1000
28 | COc1nc(-c2ccnc(Nc3ccc(N4CCOCC4=O)cn3)n2)cc2c1nc(C)n2C(C)C [compound 77] | 100 to 1000
29 | COc1nc(-c2ccnc(Nc3ccc(N4CCC(C)(N)CC4=O)cn3)n2)cc2c1ncn2C(C)C (centres unmarked) [compound 313] | 100 to 1000
30 | COc1nc(-c2ccnc(Nc3ccc(N4CCC(N5CCOCC5)CC4=O)cn3)n2)cc2c1ncn2C(C)C (centres unmarked) [compound 100] | 100 to 1000

These compounds were tested against T3, CDK6/CyclinD3 (Homo sapiens, UniProt Q00534) (assay: Assay for inhibition of CDK6/CyclinD3 (Caliper microfluidic kinase assay)). Details: CDK6/CyclinD3.
T3 construct: purchased Carna 04-107
Format: biochemical
How it was run: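 IC50s came from four-parameter dose-response fits of microfluidic substrate/product separation data. Reactions held 2 nM CDK6/CyclinD3, 300 μM ATP and 1 μM 5-FAM peptide FL-34 in pH 7.5 HEPES/MgCl2 buffer, ran 3 hours at room temperature, then were quenched with EDTA.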

T3 sequence (Q00534 whole entry): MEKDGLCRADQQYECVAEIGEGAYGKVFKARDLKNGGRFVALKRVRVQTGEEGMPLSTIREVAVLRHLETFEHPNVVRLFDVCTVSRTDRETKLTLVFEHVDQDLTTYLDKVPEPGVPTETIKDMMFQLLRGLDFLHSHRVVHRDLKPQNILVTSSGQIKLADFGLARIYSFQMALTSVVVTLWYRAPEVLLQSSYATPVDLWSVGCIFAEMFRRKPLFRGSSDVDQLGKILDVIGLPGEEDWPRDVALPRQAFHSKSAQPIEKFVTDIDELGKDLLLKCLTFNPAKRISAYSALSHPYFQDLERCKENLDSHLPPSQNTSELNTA
T3 sequence (P30281 whole entry partner): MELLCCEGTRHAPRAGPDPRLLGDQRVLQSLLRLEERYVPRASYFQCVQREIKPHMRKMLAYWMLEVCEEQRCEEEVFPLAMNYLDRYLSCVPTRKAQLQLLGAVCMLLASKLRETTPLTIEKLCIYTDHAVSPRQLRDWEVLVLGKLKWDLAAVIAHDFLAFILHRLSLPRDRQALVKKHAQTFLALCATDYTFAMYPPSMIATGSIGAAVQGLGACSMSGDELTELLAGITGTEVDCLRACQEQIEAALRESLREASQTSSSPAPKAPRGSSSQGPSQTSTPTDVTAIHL

Row | Compound | IC50 [nM]
31 | COc1nc(-c2nc(Nc3ccc(N4CCC(N(C)C)CC4)cn3)ncc2F)cc2c1nc(C)n2C(C)C [compound 94] | 10 to 100
32 | COc1nc(-c2ccnc(Nc3ccc(N4CCOCC4=O)cn3)n2)cc2c1nc(C)n2C(C)C [compound 77] | 10 to 100
33 | COc1nc(-c2ccnc(Nc3ccc(N4CCC(C)(N)CC4=O)cn3)n2)cc2c1ncn2C(C)C (centres unmarked) [compound 313] | < 10
34 | COc1nc(-c2ccnc(Nc3ccc(N4CCC(N5CCOCC5)CC4=O)cn3)n2)cc2c1ncn2C(C)C (centres unmarked) [compound 100] | 10 to 100

Same assay, conditions: CDK6/CyclinD3, 300 μM ATP

Row | Compound | IC50 [nM]
35 | CC(C)c1cnn2ccc(-c3ccnc(Nc4ccc(N5CCC(C)(N)CC5=O)cn4)n3)cc12 (centres unmarked) [compound 196] | 10 to 100
36 | CC(C)c1cnn2ccc(-c3ccnc(Nc4ccc(N5CCCC(N)C5=O)cn4)n3)cc12 (centres unmarked) [compound 207] | < 10
37 | CC(C)c1cnn2ccc(-c3nc(Nc4ccc(N5CCOCC5=O)cc4)ncc3F)cc12 [compound 25] | 10 to 100
38 | CC(C)c1cnn2ccc(-c3ccnc(Nc4ccc(N5CCN(C6CNC6)CC5=O)cn4)n3)cc12 [Synthetic Example 40] | 10 to 100
